Test results reported in US20200171118A1.
Read-outs that look alike come from different tables or passages of the source.

Experiments:
[1] = system: Escherichia coli MV1184; experiment: MIC/MBC determination, sterilizing effect (microplate, BHI liquid medium); type: cell-based; settings: E. coli MV1184; substance 12.5 to 20 ppm, sodium chlorite about 0.14 mM to 0.22 mM
[2] = Lewis acidity measuring method (1): rate of oxidation of CoTPP by O2 in the presence of the Lewis acid; type: physicochemical; settings: for Lewis acidity (ΔE value): calculated from rate of oxidization of CoTPP with O2

## NCC(=O)O [glycine]
[1]
  sterilizing action (sterilizing effect) of drug made from the substance and sodium chlorite: has a sterilizing action (sterilizing effect)

## CC(=O)OCC[N+](C)(C)C [Acetylcholine]
[2]
  Lewis acidity (ΔE value): 0.51 eV

## O=C(O)[C@@H]1CCCN1 [proline]
[1]
  sterilizing action (sterilizing effect) of drug made from the substance and sodium chlorite: has a sterilizing action (sterilizing effect)

## C[N+](C)(C)CC(=O)O [Betaine]
[2]
  Lewis acidity (ΔE value): 0.67 eV

## C[n+]1ccccc1C=NO.[I-] [pralidoxime methyl iodide]
[2]
  Lewis acidity (ΔE value): 0.60 eV

## CN.Cl [methylammonium chloride]
[2]
  Lewis acidity (ΔE value): 0.70 eV
[1]
  sterilizing action (sterilizing effect) of drug made from the substance and sodium chlorite: has a sterilizing action (sterilizing effect)

## CCCCCCCCCCCCCCCCCC[N+](C)(C)Cc1ccccc1.[Cl-]
[2]; acetonitrile, saturated O2, room temperature
  kcat, reaction rate constant of reaction between CoTPP and oxygen in the presence of a Lewis acid: 0.18 M^−2 s^−1
[2]
  Lewis acidity (ΔE value): 0.52 eV
[1]
  sterilizing action (sterilizing effect) of drug made from the substance and sodium chlorite: has a sterilizing action (sterilizing effect)

## Cl.N [Ammonium chloride]
[2]
  Lewis acidity (ΔE value): 0.66 eV
[1]
  sterilizing action (sterilizing effect) of drug made from the substance and sodium chlorite: has a sterilizing action (sterilizing effect)

## benzethonium chloride
[1]
  sterilizing action (sterilizing effect) of drug made from the substance and sodium chlorite: has a sterilizing action (sterilizing effect)

## C[N+](C)(C)CCOC(N)=O [Carbamylcholine]
[2]
  Lewis acidity (ΔE value): 0.52 eV

## oxidized glutathione
[1]
  sterilizing action (sterilizing effect) of drug made from the substance and sodium chlorite: has a sterilizing action (sterilizing effect)

## Cc1cc2nc3cc(C)c(N)cc3[n+](-c3ccccc3)c2cc1N.[Cl-] [Safranine]
[2]
  Lewis acidity (ΔE value): 0.67 eV

## C[n+]1cccc(C(=O)[O-])c1 [Trigonelline]
[2]
  Lewis acidity (ΔE value): 0.69 eV

## CCCC[N+](CCCC)(CCCC)CCCC.[Cl-] [Tetrabutylammonium chloride]
[2]
  Lewis acidity (ΔE value): 0.63 eV
[1]
  sterilizing action (sterilizing effect) of drug made from the substance and sodium chlorite: has a sterilizing action (sterilizing effect)

## CC[N+](CC)(CC)Cc1ccccc1.[Cl-] [Benzyltriethyl ammonium chloride]
[2]
  Lewis acidity (ΔE value): 0.54 eV

## N[C@@H](CO)C(=O)O [L-serine]
[1]
  sterilizing action (sterilizing effect) of drug made from the substance and sodium chlorite: has a sterilizing action (sterilizing effect)

## N[C@@H](CC(=O)O)C(=O)O [L-aspartate]
[1]
  sterilizing action (sterilizing effect) of drug made from the substance and sodium chlorite: has a sterilizing action (sterilizing effect)

## C[N+](C)(C)C.[Cl-] [Tetramethylammonium chloride]
[2]
  Lewis acidity (ΔE value): 0.50 eV

## CCCC[N+](CCCC)(CCCC)CCCC.F[P-](F)(F)(F)(F)F [tetrabutylammonium hexafluorophosphate]
[2]
  kcat, reaction rate constant of reaction between CoTPP and oxygen in the presence of a Lewis acid: >0.1 M^−2 s^−1
